Test results published in patent publication US20250302832A1, “PYRAZINE DERIVATIVES AND USES THEREOF” (FOGHORN THERAPEUTICS INC., priority 2022, published 2025).

Assays:
[1] = target: T1, HiBit-BRG1 fusion protein (Homo sapiens, UniProt P51532); assay: HiBiT-BRG1 cell-based degradation assay (Nano-Glo HiBiT lytic detection, 24 h); conditions: HeLa cell line expressing HiBit-BRG1 and LgBit; for Dmax: read-out: BRG1 HiBit Degradation Maximum (%); for DC50: read-out: BRMG1 HiBit Degradation IC50
T1 construct: expressed in transfected cells
T1 sequence (P51532 whole entry, the tested form may be a part): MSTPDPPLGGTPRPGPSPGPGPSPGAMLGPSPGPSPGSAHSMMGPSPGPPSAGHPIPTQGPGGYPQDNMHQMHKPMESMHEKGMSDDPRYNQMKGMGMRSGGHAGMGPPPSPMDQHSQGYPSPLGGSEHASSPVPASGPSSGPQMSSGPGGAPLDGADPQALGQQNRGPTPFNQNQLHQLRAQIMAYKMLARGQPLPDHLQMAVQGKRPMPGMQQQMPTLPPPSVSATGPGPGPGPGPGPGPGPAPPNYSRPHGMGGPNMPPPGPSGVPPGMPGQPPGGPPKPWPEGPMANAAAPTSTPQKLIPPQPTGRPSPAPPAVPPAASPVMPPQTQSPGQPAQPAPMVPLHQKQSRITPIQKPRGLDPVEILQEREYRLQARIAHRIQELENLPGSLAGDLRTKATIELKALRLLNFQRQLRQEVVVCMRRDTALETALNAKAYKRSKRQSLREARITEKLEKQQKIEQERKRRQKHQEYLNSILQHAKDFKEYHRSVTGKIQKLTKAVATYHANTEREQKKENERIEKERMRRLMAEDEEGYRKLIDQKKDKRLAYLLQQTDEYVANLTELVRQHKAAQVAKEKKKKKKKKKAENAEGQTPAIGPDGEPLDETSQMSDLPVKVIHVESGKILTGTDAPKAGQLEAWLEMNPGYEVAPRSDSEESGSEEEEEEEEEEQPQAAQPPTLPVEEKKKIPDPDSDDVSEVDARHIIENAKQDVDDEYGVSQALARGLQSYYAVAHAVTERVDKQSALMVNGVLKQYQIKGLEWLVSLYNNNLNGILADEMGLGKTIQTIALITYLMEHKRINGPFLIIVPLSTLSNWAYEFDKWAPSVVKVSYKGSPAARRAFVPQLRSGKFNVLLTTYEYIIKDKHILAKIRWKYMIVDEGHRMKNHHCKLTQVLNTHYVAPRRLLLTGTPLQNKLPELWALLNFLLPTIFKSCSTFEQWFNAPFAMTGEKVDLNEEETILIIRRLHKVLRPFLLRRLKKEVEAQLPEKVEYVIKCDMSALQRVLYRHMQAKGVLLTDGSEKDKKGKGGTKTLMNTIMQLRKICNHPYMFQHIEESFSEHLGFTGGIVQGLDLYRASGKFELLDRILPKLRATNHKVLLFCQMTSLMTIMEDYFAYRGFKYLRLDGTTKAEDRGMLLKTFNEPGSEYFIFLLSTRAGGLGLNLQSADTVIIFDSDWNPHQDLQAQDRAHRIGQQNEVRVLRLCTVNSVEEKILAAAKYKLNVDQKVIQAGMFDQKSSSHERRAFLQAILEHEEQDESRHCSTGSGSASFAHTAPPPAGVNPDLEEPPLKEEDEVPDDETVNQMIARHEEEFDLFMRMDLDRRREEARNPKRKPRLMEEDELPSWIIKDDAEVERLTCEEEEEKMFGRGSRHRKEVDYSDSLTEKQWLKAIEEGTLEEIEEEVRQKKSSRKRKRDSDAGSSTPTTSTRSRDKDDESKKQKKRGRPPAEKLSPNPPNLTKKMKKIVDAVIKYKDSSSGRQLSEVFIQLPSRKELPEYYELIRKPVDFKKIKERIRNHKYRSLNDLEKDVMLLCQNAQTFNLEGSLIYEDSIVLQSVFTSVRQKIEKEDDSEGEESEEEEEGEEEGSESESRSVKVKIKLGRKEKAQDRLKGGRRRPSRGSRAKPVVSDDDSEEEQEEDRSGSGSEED
In short: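 HeLa cells stably expressing HiBiT-BRG1 and LgBiT, 5000 per well, compound-treated 24 h, equilibrated 15 min at room temperature, then lysed with LgBiT-containing Nano-Glo HiBiT lytic reagent and luminescence read. % degradation normalised between DMSO (high control) and 2 μM reference BRM/BRG1 degrader (low control).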

[2] = target: T2, HiBit-BRM fusion protein (Homo sapiens, UniProt P51531); assay: HiBiT-BRM cell-based degradation assay (Nano-Glo HiBiT lytic detection, 24 h); conditions: HeLa cell line expressing HiBiT-BRM; for DC50: read-out: BRM HiBit Degradation IC50
T2 construct: expressed in transfected cells
T2 sequence (P51531 whole entry, the tested form may be a part): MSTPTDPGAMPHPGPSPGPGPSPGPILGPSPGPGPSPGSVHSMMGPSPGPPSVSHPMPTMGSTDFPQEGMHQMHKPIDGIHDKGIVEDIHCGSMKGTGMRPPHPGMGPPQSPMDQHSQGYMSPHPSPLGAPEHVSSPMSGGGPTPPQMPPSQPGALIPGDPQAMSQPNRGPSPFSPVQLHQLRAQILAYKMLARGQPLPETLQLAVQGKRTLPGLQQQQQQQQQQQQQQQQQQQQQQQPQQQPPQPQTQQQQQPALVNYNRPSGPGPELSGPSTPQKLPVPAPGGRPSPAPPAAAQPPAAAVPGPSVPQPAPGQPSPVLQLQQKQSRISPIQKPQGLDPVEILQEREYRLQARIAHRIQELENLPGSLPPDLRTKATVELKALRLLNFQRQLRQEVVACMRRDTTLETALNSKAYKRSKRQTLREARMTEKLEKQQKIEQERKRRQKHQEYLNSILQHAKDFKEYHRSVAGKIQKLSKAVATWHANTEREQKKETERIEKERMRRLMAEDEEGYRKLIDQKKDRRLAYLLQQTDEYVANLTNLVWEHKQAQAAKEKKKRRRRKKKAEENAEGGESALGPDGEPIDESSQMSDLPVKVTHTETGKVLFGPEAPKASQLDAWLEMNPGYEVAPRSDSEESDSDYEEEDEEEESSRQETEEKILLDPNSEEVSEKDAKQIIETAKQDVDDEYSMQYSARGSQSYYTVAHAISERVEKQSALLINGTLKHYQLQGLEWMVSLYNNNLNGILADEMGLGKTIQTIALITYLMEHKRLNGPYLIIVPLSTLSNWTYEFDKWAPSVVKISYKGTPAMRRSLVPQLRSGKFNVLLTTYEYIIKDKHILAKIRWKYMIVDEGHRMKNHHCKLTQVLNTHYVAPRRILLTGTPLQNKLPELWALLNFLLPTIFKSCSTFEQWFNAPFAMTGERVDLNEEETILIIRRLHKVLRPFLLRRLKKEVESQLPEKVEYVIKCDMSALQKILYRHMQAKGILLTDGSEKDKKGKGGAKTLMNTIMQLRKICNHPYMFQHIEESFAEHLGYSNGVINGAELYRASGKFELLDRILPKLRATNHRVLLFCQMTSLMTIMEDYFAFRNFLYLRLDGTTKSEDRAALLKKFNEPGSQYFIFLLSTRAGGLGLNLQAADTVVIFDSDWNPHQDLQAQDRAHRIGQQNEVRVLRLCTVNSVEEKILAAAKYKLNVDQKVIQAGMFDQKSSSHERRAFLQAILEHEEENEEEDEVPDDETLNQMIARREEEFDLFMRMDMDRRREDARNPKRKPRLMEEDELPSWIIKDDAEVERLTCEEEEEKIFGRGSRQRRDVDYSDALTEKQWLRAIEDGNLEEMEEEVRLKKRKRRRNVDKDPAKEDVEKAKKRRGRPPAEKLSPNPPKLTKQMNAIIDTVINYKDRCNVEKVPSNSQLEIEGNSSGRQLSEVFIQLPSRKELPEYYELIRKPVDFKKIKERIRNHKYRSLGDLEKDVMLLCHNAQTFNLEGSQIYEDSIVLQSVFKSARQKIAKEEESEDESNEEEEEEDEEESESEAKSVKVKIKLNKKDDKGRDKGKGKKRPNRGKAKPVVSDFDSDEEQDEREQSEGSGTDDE
In short: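 Stable HeLa HiBiT-BRM cells treated 24 h with compounds (10-point 3-fold dilutions, 30 μM final top dose, duplicate). HiBiT levels read by Nano-Glo lytic luminescence; % degradation normalised to DMSO (high control) and 2 μM reference BRM/BRG1 degrader (low control).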

Dmax [1] | DC50 [2] | DC50 [1] | SMILES | BRM HiBit Degradation Maximum (%) [2]
< 50% | < 0.01 µM | – | Cc1ncsc1-c1ccc([C@H](C)NC(=O)[C@@H]2C[C@@H](O)CN2C(=O)[C@@H](c2cc(-c3cnc(N4CCC(c5cc6nnc(-c7ccccc7O)cc6n5C5CC5)CC4)nc3)no2)C(C)C)cc1 [Compound 25, (2S,4R)-1-[(2R)-2-[3-(2-{4-[5-cyclopropyl-3-(2-hydroxyphenyl)pyrrolo[3,2-c]pyridazin-6-yl]piperidin-1-yl}pyrimidin-5-yl)-1,2-oxazol-5-yl]-3-methylbutanoyl]-4-hydroxy-N-[(1S)-1-[4-(4-methyl-1,3-thiazol-5-yl)phenyl]ethyl]pyrrolidine-2-carboxamide] | A (“A” indicates maximum degradation ≥75%)
> 50% | < 0.01 µM | > 0.01 µM | Cc1ncsc1-c1ccc([C@H](C)NC(=O)[C@@H]2C[C@@H](O)CN2C(=O)[C@@H](c2cc(N3CC4(CC(c5cc6nnc(-c7ccccc7O)cc6n5C)C4)C3)no2)C(C)C)cc1 [Compound 67, (2S,4R)-4-hydroxy-1-((R)-2-(3-(6-(3-(2-hydroxyphenyl)-5-methyl-5H-pyrrolo[3,2-c]pyridazin-6-yl)-2-azaspiro[3.3]heptan-2-yl)isoxazol-5-yl)-3-methylbutanoyl)-N-((S)-1-(4-(4-methylthiazol-5-yl)phenyl)ethyl)pyrrolidine-2-carboxamide] | A (“A” indicates maximum degradation ≥75%)
> 75% | > 0.01 µM | > 0.1 µM | Cc1ncsc1-c1ccc([C@H](C)NC(=O)[C@@H]2C[C@@H](O)CN2C(=O)[C@@H](c2cc(N3CCC(C(=O)N4CC(c5cc6nnc(-c7ccccc7O)cc6[nH]5)C4)CC3)no2)C(C)C)cc1 [Compound 6] | A (“A” indicates maximum degradation ≥75%)
> 75% | < 0.01 µM | < 0.01 µM | Cc1ncsc1-c1ccc([C@H](C)NC(=O)[C@@H]2C[C@@H](O)CN2C(=O)[C@@H](c2cc(N3CC[C@@H](c4cc5nnc(-c6ccccc6O)cc5n4C4(C)CC4)C3)no2)C(C)C)cc1 [Compound 81, (2S,4R)-4-hydroxy-1-((R)-2-(3-((R)-3-(3-(2-hydroxyphenyl)-5-(1-methylcyclopropyl)-5H-pyrrolo[3,2-c]pyridazin-6-yl)pyrrolidin-1-yl)isoxazol-5-yl)-3-methylbutanoyl)-N-((S)-1-(4-(4-methylthiazol-5-yl)phenyl)ethyl)pyrrolidine-2-carboxamide] | A (“A” indicates maximum degradation ≥75%)
< 50% | > 0.01 µM | – | Cc1ncsc1-c1ccc([C@H](C)NC(=O)[C@@H]2C[C@@H](O)CN2C(=O)[C@@H](c2cc(-c3cnc(N4CC[C@@H](c5cc6nnc(-c7cccc(F)c7O)cc6n5C5CC5)C4)nc3)no2)C(C)C)cc1 [Compound 106, (2S,4R)-1-((R)-2-(3-(2-((R)-3-(5-cyclopropyl-3-(3-fluoro-2-hydroxyphenyl)-5H-pyrrolo[3,2-c]pyridazin-6-yl)pyrrolidin-1-yl)pyrimidin-5-yl)isoxazol-5-yl)-3-methylbutanoyl)-4-hydroxy-N-((S)-1-(4-(4-methylthiazol-5-yl)phenyl)ethyl)pyrrolidine-2-carboxamide] | B (“B” indicates maximum degradation ≥50%)
> 75% | < 0.01 µM | > 0.01 µM | Cc1ncsc1-c1ccc([C@H](C)NC(=O)[C@@H]2C[C@@H](O)CN2C(=O)[C@@H](c2cc(-c3cnc(N4CC[C@@H](c5cc6nnc(-c7ccccc7O)cc6n5CC5CC5)C4)nc3)no2)C(C)C)cc1 [Compound 114, (2S,4R)-1-((R)-2-(3-(2-((R)-3-(5-(cyclopropylmethyl)-3-(2-hydroxyphenyl)-5H-pyrrolo[3,2-c]pyridazin-6-yl)pyrrolidin-1-yl)pyrimidin-5-yl)isoxazol-5-yl)-3-methylbutanoyl)-4-hydroxy-N-((S)-1-(4-(4-methylthiazol-5-yl)phenyl)ethyl)pyrrolidine-2-carboxamide] | A (“A” indicates maximum degradation ≥75%)
